From US11224627B2, “Method for culturing cells of Acrochaetium moniliforme red algae, method for obtaining an extract of the biomass thereof, and use of same in cosmetics” (SOCIETE D'EXPLOITATION DE PRODUITS POUR LES INDUSTRIES …, priority 2016, dated 2022) come the findings set out here.

The subject of data set [1] is Human fibroblasts of the dermal follicular papilla. The data set is described as follows: Viability measured using WST-8 reagent. It is filed as cell-based. Conditions: 2 μM. In general terms: Tetrazolium assays rely on reduction of a dye to a coloured formazan, in cell work by metabolically active cells.
The next data set has as its system 5-α-reductase enzyme. The data set is described as follows: Production of dihydrotestosterone (DHT) from testosterone in a cellular model, revealing 5-α-reductase activity. It counts as cell-based, human. Conditions: 2 μM. The protocol:
This model is a cellular model, that is more robust than models on purified enzyme.
Human fibroblasts of the dermal follicular papilla (person) were seeded into collagen-coated culture plates in the presence of a specific growth medium. After three days, they were pretreated for 24 hours with the positive reference [Finasteride (F) at 2 μM and 1 μM] and each of the algal extracts to be tested (Table 2). The fibroblasts were then stimulated with testosterone at 0.5 μM before undergoing a post-treatment for 24 hours. Each test was carried out in sextuplicate.
The viability was measured using a WST-8 reagent and the conversion of the testosterone was then evaluated by measuring the intracellular concentration of (DHT). The viability was expressed relative to that of the control without testosterone (control T0). The amount of (DHT) was standardized relative to the viability results and then related to the control condition with testosterone (0.5 μM) control (T1) in order to calculate a percentage effect, and also related to the control conditions without testosterone in order to calculate a percentage protection.

Marks after values point to notes of the source that are not given here.

On to `CC(C)(C)NC(=O)[C@H]1CC[C@H]2[C@@H]3CC[C@H]4NC(=O)C=C[C@]4(C)[C@H]3CC[C@]12C` [F, Finasteride], for which the “WST-8 OD (AU)” value in data set [1] (fibroblasts stimulated with testosterone 0.5 μM, 24 h pre- and 24 h post-treatment) was 2.19 +/− 0.27^(a) AU. Further, in data set [1] (relative to control without testosterone (T0)), the “WST-8 Viability” value is recorded as 93%^(a). Moreover, the “DHT Standardized concentration (pg/ml/AU)” value with 5-α-reductase enzyme (DHT standardized relative to viability (WST-8 OD)) was 5.68 +/− 0.91^(a) pg/ml/AU. Further, the “DHT Concentration (pg/ml)” value in the data set with 5-α-reductase enzyme (intracellular DHT, testosterone 0.5 μM) is reported as 12.38 +/− 2.35^(a) pg/ml. In the data set with 5-α-reductase enzyme (related to control without testosterone (T0 = 100%, T1 = 0%)), the “DHT Restoration” value amounted to 46%*. Further, the “DHT Effect” value in the data set with 5-α-reductase enzyme (relative to control with testosterone 0.5 μM (T1)) is recorded as −28%*.
